Measured values from patent US20210402211A1, “LIGHT-HYDROGEN THERAPY INCLUDING LIGHTING MODULE, LIGHTING APPARATUS, AND LIGHTING METHOD FOR PARKINSON'S DISEASE PATIENTS” (priority 2020, published 2021).

System: PD patients
Conditions: without light therapy, in a short time

[HH] [hydrogen, Molecular hydrogen]
effectiveness of hydrogen therapy alone: not that effective
